Laboratory results as given in publication PMC4775997, “Imidazopyridazine Inhibitors of Plasmodium falciparum Calcium-Dependent Protein Kinase 1 Also Target Cyclic GMP-Dependent Protein Kinase and Heat Shock Protein 90 To Kill the Parasite at Different Stages of Intracellular Development” (Antimicrobial Agents and Chemotherapy, 2016).
Like-named read-outs stand apart in the source and are kept apart here.

How the values were obtained:
PfHSP90 = PfHSP90 (Plasmodium falciparum, UniProt Q8IC05); test: Tryptophan fluorescence binding, full-length PfHSP90; conditions: tryptophan fluorescence 346 nm; [SE] of triplicate measurements; read-out: Kd, full-length PfHSP90
Sequence of PfHSP90 (Q8IC05 entry or part of it): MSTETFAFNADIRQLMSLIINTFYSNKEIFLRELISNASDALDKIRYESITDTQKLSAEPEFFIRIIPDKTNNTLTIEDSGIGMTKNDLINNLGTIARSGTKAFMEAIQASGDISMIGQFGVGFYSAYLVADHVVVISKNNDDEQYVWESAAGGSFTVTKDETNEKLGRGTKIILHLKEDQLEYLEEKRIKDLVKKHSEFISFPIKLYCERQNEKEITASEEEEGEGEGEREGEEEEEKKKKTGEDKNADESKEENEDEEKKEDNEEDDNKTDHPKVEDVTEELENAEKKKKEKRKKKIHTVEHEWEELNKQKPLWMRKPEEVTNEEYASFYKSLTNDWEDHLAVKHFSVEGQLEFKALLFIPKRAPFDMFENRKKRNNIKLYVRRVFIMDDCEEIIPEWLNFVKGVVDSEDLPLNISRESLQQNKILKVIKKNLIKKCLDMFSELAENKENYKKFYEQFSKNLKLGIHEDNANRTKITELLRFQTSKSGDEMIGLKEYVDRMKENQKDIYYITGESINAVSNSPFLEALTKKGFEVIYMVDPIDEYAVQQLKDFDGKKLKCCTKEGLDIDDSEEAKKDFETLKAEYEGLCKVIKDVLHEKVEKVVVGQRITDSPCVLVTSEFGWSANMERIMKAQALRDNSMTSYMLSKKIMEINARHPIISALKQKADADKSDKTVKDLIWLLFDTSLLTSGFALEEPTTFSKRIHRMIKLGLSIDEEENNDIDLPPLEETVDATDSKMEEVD
Method: (§1) The PCR product was cloned into pRSET-A (Life Technologies) between the BamHI and XhoI sites. Positive clones were confirmed by restriction digestion and sequencing. The clone was transformed into Escherichia coli Rosetta(pLysS) cells, and protein was expressed by induction with 0.1 mM isopropyl β-D-1-thiogalactopyranoside (IPTG) at 37°C for 2 h. PfHSP90 proteins were purified using Ni-nitrilotriacetic acid (NTA) affinity chromatography (Qiagen) as described in the manufacturer's protocol.
Tryptophan fluorescence analysis was performed using a PerkinElmer LS55 luminescence spectrometer. […] The binding buffer used for the reaction contained 50 mM Tris-HCl, pH 7.4, and 1 mM EDTA. Samples were excited at 280 nm, and tryptophan fluorescence measurements were carried out by scanning the emission spectrum in the wavelength range 300 to 400 nm. A maximum wavelength (λmax) of 346 nm was selected for all the calculations. The slit widths of excitation and emission were set at 2.5 and 5 nm, respectively. The difference in fluorescence intensity between protein alone and protein with various concentrations of 17-AAG or compound D was calculated and plotted against the different concentrations of the respective ligand used. The resultant hyperbolic curve was analyzed with GraphPad Prism software, using nonlinear regression analysis with single-site-specific binding as described previously ([32]).

PfHSP90-NTD = PfHSP90-NTD (Plasmodium falciparum, UniProt Q8IC05); test: Tryptophan fluorescence binding, PfHSP90 N-terminal domain; conditions: tryptophan fluorescence 346 nm; [SE] of triplicate measurements; read-out: Kd, PfHSP90-NTD
Sequence of PfHSP90-NTD (Q8IC05 entry or part of it): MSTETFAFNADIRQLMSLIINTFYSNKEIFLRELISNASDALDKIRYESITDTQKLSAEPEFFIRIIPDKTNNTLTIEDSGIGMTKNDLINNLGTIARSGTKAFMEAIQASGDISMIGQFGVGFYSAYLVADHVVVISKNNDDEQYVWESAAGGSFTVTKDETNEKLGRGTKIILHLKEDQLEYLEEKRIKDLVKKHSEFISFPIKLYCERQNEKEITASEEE
Description: PfCDPK1 and PfCDPK1 T145G proteins were produced using methods described elsewhere ([23]). The PfHSP90 N-terminal domain (NTD) comprises the first 223 amino acids of PfHSP90. This region was amplified from the full-length PfHSP90-pRSET-A construct ([32]) using the following primers: primer 7, […]; primer 8, […].
as §1, with “PfHSP90 proteins were purified using Ni-nitrilotriacetic acid (NTA) affinity chromatography (Qiagen) as described in the manufacturer's protocol.” left out
Tryptophan fluorescence analysis was performed using a PerkinElmer LS55 luminescence spectrometer. […] Samples were excited at 280 nm, and tryptophan fluorescence measurements were carried out by scanning the emission spectrum in the wavelength range 300 to 400 nm. […] The difference in fluorescence intensity between protein alone and protein with various concentrations of 17-AAG or compound D was calculated and plotted against the different concentrations of the respective ligand used. The resultant hyperbolic curve was analyzed with GraphPad Prism software, using nonlinear regression analysis with single-site-specific binding as described previously ([32]).

P. falciparum 3D7 [1] = test: SYBR green I growth assay, wild-type parasites; type: cell-based, Plasmodium falciparum; conditions: for EC5048/EC5096 ratio: Table 1
CDPK1 = CDPK1 (Plasmodium falciparum, UniProt P62344); test: biochemical; type: biochemical; conditions: read-out: Enzyme inhibition IC50, CDPK1
Sequence of CDPK1 (P62344 whole entry): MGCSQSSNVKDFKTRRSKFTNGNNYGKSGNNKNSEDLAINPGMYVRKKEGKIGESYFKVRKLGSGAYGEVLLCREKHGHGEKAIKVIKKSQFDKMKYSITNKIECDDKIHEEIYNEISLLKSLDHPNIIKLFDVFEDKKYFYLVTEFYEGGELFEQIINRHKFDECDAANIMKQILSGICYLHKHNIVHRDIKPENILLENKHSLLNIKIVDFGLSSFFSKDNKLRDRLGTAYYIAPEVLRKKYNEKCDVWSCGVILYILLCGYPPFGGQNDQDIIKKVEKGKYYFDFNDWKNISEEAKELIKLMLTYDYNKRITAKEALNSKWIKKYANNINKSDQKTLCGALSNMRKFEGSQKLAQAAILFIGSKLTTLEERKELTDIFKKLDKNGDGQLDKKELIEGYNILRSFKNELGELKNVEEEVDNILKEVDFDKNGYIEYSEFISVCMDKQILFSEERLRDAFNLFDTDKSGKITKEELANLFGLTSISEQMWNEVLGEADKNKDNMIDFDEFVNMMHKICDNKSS

PfPKG = molecular target: T1, PfPKG (Plasmodium falciparum, UniProt Q8I719); test: Microfluidic fluorescent shift assay of cGMP-dependent protein kinase activity; type: biochemical
T1 construct: plasmids (pTrcHisC) encoding full-length PfPKG and PfPKG T618Q with N-terminal His tags; His tag (N); made in house; host or cells: E. coli Rosetta2(DE3)

PfPKG T618Q = molecular target: T2, PfPKG T618Q (Plasmodium falciparum, UniProt Q8I719, T618Q); test: biochemical; type: biochemical
T2 construct: plasmids (pTrcHisC) encoding full-length PfPKG and PfPKG T618Q with N-terminal His tags; His tag (N); made in house; host or cells: E. coli Rosetta2(DE3)
T2 sequence (Q8I719 whole entry T618Q): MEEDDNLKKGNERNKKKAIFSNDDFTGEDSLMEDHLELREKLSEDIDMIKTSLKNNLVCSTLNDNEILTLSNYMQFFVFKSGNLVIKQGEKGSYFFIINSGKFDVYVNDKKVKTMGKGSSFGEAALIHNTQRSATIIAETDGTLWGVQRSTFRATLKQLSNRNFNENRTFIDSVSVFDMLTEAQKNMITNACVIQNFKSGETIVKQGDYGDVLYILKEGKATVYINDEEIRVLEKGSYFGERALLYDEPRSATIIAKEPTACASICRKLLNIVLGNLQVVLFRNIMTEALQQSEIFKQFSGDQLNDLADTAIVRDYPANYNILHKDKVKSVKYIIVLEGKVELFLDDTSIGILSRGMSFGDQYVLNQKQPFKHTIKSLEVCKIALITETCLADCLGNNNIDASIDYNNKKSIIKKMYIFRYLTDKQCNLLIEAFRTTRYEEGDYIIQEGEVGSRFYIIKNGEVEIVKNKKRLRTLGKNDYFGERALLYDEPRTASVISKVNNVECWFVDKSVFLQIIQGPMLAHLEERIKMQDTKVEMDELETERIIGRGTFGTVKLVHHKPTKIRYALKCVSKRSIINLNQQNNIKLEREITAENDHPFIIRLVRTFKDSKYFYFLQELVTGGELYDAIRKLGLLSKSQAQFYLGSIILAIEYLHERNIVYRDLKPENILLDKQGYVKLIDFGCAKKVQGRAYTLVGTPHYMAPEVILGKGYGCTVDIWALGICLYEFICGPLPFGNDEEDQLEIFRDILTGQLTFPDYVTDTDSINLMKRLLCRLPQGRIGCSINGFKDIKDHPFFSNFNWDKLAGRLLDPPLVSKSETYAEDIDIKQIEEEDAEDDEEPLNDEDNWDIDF

3D7 PKG T618Q = test: microbe, parasite or virus in culture; type: cell-based, Plasmodium falciparum; conditions: for EC50: read-out: Parasite inhibition EC50, 3D7 PKG T618Q; for Ratio 3D7 PKG T618Q/3D7: Table S2
P. falciparum 3D7 [2] = test: Microscopic examination of Giemsa-stained smears (stage of action); conditions: for Stage of action (before or after DNA synthesis): Table S1, ring-stage parasites, 10x EC50 for 48 h; for Stage of action: ring stage parasites treated with 10 times the 96-h EC50 for 48 h
3D7 CDPK1 T145T-HA = test: SYBR green assay, 3D7 CDPK1 T145T-HA line; type: cell-based; conditions: Plasmodium falciparum, 3D7, read-out: EC50, 3D7 CDPK1 T145T-HA
Method: (§2) Aliquots of 100 μl of P. falciparum cultures 24 h after erythrocyte invasion were transferred into 96-well culture dishes. Cells were incubated with inhibitors for 48 or 96 h (starting parasitemias were 0.3% and 0.03%, respectively). All drug treatments were carried out in duplicate at a final dimethyl sulfoxide (DMSO) concentration of 0.05%. After incubation, a modification of a previously described SYBR green assay was performed ([27]). Cells were lysed by the addition of 25 μl of buffer (20 mM Tris-HCl, pH 8.0, 2 mM EDTA, pH 8.0, 1.6% Triton X-100, 0.16% saponin, 10× SYBR green I [Life Technologies]). After incubation in the dark for 2 h, fluorescence of the samples was determined using a FLUOStar Omega plate reader (BMG Labtech) with excitation and emission filters of 485 nm and 520 nm, respectively. EC50s were calculated from a four-parameter logistical fit of the data using Prism software (GraphPad Software, Inc.).
(§3) Parasites expressing CDPK1 T145G and CDPK1 T145T were generated as described previously ([28]). Briefly, a region of homology to facilitate integration of the plasmid via single-crossover homologous recombination was amplified from P. falciparum 3D7 genomic DNA at 194 bp upstream of the ATG to bp 435 of the open reading frame using primers 1 and 2 for the wild-type (WT) version and primers 1 and 3 for the glycine version. […]

3D7 CDPK1 T145G-HA = test: SYBR green assay, 3D7 CDPK1 T145G-HA line; type: cell-based; conditions: Plasmodium falciparum, 3D7, read-out: EC50, 3D7 CDPK1 T145G-HA
Method: as §2, §3

[3] = SYBR green I, 48 h incubation, mean of three independent experiments (SD), read-out: EC50 after treatment for 48 h
[4] = SYBR green I, 96 h incubation, mean of three independent experiments (SD), read-out: EC50 after treatment for 96 h
[5] = Table 2, SYBR green I, 96 h, single experiment, or mean (SD) of duplicate assays, read-out: Parasite inhibition EC50, 3D7
[6] = Table S1, single experiment with duplicate samples, or mean of triplicate experiments (SD), read-out: EC50 48 hours
[7] = read-out: Enzyme inhibition IC50, PKG
[8] = Table 2, ATP at Km 90 μM, read-out: Enzyme inhibition IC50, PKG T618Q
[9] = Table 2, SYBR green I, 96 h, single experiment, or mean (SD) of duplicate assays
[10] = Table S1, single experiment with duplicate samples, or mean of triplicate experiments (SD), read-out: EC50 96 hours
[11] = Table S2, read-out: Enzyme inhibition IC50, PKG
[12] = Table S2, read-out: Enzyme inhibition IC50, PKG T618Q

Structure (SMILES)	EC5048/EC5096 ratio (P. falciparum 3D7 [1])	ratio EC5048:EC5096 (P. falciparum 3D7 [1]; Table S1)	IC50 (CDPK1; Table 2) [µM]	3D7 PKG T618Q/3D7 EC50 ratio (3D7 PKG T618Q; Table 2)	Ratio 3D7 PKG T618Q/3D7 (3D7 PKG T618Q)	Stage of action (before or after DNA synthesis) (P. falciparum 3D7 [2])	Stage of action (P. falciparum 3D7 [2])	EC50 (P. falciparum 3D7 [1]; [3]) [µM]	EC50 (P. falciparum 3D7 [1]; [4]) [µM]	EC50 (P. falciparum 3D7 [1]; [5]) [µM]	EC50 (P. falciparum 3D7 [1]; [6]) [µM]	IC50 (PfPKG; [7]) [µM]	IC50 (PfPKG T618Q; [8]) [µM]	EC50 (3D7 PKG T618Q; [9]) [µM]	EC50 (P. falciparum 3D7 [1]; [10]) [µM]	Selectivity PKG T618Q/PKG (PfPKG T618Q; Table S2)	also measured
C=CCNC1=C2C[C@@H](C)C[C@H](OC)[C@H](O)[C@@H](C)/C=C(\C)[C@H](OC(N)=O)[C@@H](OC)/C=C\C=C(/C)C(=O)NC(=CC1=O)C2=O [Compound 17-AAG, 17-N-allylamino-17-demethoxygeldanamycin, reference compound]	–	–	–	–	–	–	–	–	–	–	–	–	–	–	–	–	Kd (PfHSP90): 8.7 µM; Kd (PfHSP90-NTD): 15.8 µM
NC1CCC(Nc2ccc3ncc(-c4cnc(Nc5ccccn5)c(F)c4)n3n2)CC1 (stereo not drawn) [Compound 20]	2.1	2.1	0.008	1.8	2	trophozoite	Trophozoite	–	–	–	–	–	–	–	–	–	EC50 (P. falciparum 3D7 [1]; Plasmodium falciparum, 3D7, 48 h, read-out: EC50 48 hours): 0.3 µM; EC50 (P. falciparum 3D7 [1]; Plasmodium falciparum, 3D7, 48 h, read-out: EC50 after treatment for 48 h): 0.298 µM; EC50 (P. falciparum 3D7 [1]; Plasmodium falciparum, 3D7, 96 h, read-out: EC50 96 hours): 0.14 µM; EC50 (P. falciparum 3D7 [1]; Plasmodium falciparum, 3D7, 96 h, read-out: EC50 after treatment for 96 h): 0.142 µM; EC50 (P. falciparum 3D7 [1]; Plasmodium falciparum, 3D7, 96 h, read-out: Parasite inhibition EC50, 3D7): 0.21 µM; IC50 (PfPKG): 0.012 µM; IC50 (PfPKG T618Q): 15.3 µM; EC50 (3D7 PKG T618Q; Plasmodium falciparum, 3D7, 96 h): 0.386 µM
CC(C)CCNc1ccc(-c2cnc3ccc(NC4CCN(C)C4)nn23)cn1 (stereo not drawn) [Compound 22]	1.8	1.8	0.074	1.4	1	trophozoite (before)	Trophozoite	0.546	0.3	0.215	0.55	> 1	37.5	0.303	–	–	Selectivity (PKG T618Q/PKG IC50 ratio) (PfPKG T618Q; Table 2): <38
Fc1cccnc1Nc1ncc(-c2cnc3ccc(NC4CCC(N5CCNCC5)CC4)nn23)cn1 (stereo not drawn) [Compound 28]	4.4	4.4	0.012	10.8	11	late schizont (after)	Late schizont	0.168	0.038	0.059	0.17	0.003	31.7	0.64	0.04	12100	EC5048/EC5096 ratio (P. falciparum 3D7 [1]; listed as Compound 28): less than 5; Stage of action (P. falciparum 3D7 [2]; listed as Compound 28): arrest parasites in late schizogony
CC(C)CCNc1ncc(-c2cnc3ccc(NC4CCN(C)C4)nn23)cn1 (stereo not drawn) [Compound 31]	7.0	7.0	–	–	–	late schizont	Late schizont	1.66	0.238	–	1.66	–	–	–	0.24	21	IC50 (CDPK1; Table S2): 0.093 µM; IC50 (PfPKG; [11]): 0.287 µM; IC50 (PfPKG T618Q; [12]): 5.95 µM
CN(C)C1CCN(c2ccc3ncc(-c4cnc(Nc5ncccc5F)nc4)n3n2)C1 (stereo not drawn) [Compound 35]	>1,000	–	–	–	–	late schizont	Late schizont	> 1000	0.809	–	–	–	–	–	0.81	10653	IC50 (CDPK1; Table S2): 0.017 µM; IC50 (PfPKG; [11]): 0.05 µM; IC50 (PfPKG T618Q; [12]): 528 µM
CN1CCC(CNc2ccc3ncc(-c4cnc(Nc5ncccc5F)nc4)n3n2)CC1 [Compound 38]	>1,000	–	0.008	11.8	12	late schizont	Late schizont	> 1000	0.05	0.073	–	0.004	43.5	0.859	–	12187	–
CC(C)(C)n1nc(Cc2cccc3ccccc23)c2c(N)ncnc21 [NM-PP1, 1-(1,1-dimethylethyl)-3-(1-naphthalenylmethyl)-1H-pyrazolo[3,4-d]pyrimidin-4-amine]	–	–	–	–	–	–	–	–	–	–	–	–	–	–	–	–	EC50 (3D7 CDPK1 T145T-HA): 11.6 µM; EC50 (3D7 CDPK1 T145G-HA): 10.3 µM
